Results as given in PubChem BioAssay AID1996.
Converted amounts (≈) assume the structure as drawn.

Details: buffer; pH 7.4; 200.0 µM

Structure (SMILES)	solubility kinetic [µg/mL]
Cc1ccccc1NCCC(=O)Nc1ccc(Cl)cc1	> 43.3
Cc1cccc(NC(=O)CSc2n[nH]c(-c3cccnc3)n2)c1	> 48.8
CN(C)CCCNCCCNC(=O)/C(=N\O)c1ccccc1	> 46
Cc1cccc(NC(=O)/C(C#N)=C/c2ccc(Cl)cc2)n1	0.6 (≈ 2.02 µM)
Cc1c2n(c3ccccc13)CC/C2=N\O	4.9 (≈ 24.5 µM)
COc1cc([N+](=O)[O-])ccc1NC(=O)COC(=O)c1c[nH]c(=O)[nH]c1=O	> 54.6
COc1ccc(NC(=O)Nc2cccc(C)n2)c(OC)c1	< 0.2
Cc1nc([N+](=O)[O-])c(C(=O)OCc2ccccc2F)n1C	41.8 (≈ 143 µM)
Cn1c(=O)n(C)c2cc(S(=O)(=O)N3CCCCC3)ccc21	> 46.4
CSc1ncc(Cl)c(C(=O)Nc2c(C)cccc2C)n1	2.3 (≈ 7.47 µM)
Cc1ccc(S(=O)(=O)N(C)C)cc1NC(=O)C(C)OC(=O)C1CCC1 (centres undefined)	> 55.3
O=C(Nc1cccc(S(=O)(=O)NCc2ccco2)c1)c1cccc(Cl)c1	2.5 (≈ 6.4 µM)
COc1ccc(-n2ccc3ccccc32)cc1	< 0.5
Cc1cc2c(SCC(=O)NC3CCCC3)ncnc2s1	30.2 (≈ 98.2 µM)
Fc1ccc(-c2csc(-c3ccccn3)n2)cc1F	< 0.3
CCOC(=O)c1c(NC(=O)NC(C)(C)C)sc2c1CCN(C)C2	14.9 (≈ 43.9 µM)
Cn1cnnc1SCC(=O)NC1CC1	> 31.8
Cn1ccnc1COc1ccc(/C=N/O)cc1	> 34.7
COc1ccc(N=C2NC(=O)/C(=C/c3ccco3)S2)cc1	1.6 (≈ 5.33 µM)
CCOc1ccc(N2C(=O)CSC2=S)cc1	< 0.5

Structure (SMILES)	solubility kinetic [µg/mL]
Cc1ccc(C(C)NC(=O)c2cccs2)cc1 (centres undefined)	20.7 (≈ 84.4 µM)
CCOc1ccc(NS(=O)(=O)c2cc(C)c(C)cc2C)cc1	10.2 (≈ 31.9 µM)
CCOc1ccc(-c2cnc(N)n2C)cc1	31.8 (≈ 146 µM)
CC(C)S(=O)(=O)C/C(N)=N/OC(=O)c1cc(Cl)cc(Cl)c1	34.5 (≈ 97.7 µM)
O=C(O)c1cccnc1SCC(=O)N1CCCc2ccccc21	47 (≈ 143 µM)
CCS(=O)(=O)Nc1ccccc1C(N)=O	> 34.2
C=CCc1ccccc1Oc1cc(F)nc(N)n1	27.7 (≈ 113 µM)
O=C(COC(=O)c1c(F)cccc1F)c1ccc[nH]1	39.3 (≈ 148 µM)
Cc1cccc(NC(=O)c2cc3c(s2)-c2c(C)cccc2OC3)n1	< 0.4
CC(NCc1ccc(F)cc1)C(=O)NC1CCCCC1.O=C(O)C(=O)O (centres undefined)	> 55.3
CCOc1ccc(Nc2nc(-c3cccnc3)cs2)cc1	< 0.2
CN(C)C(=O)c1cc(C(=O)c2ccccc2F)c[nH]1	38.9 (≈ 149 µM)
Cc1cc(C)c(S(=O)(=O)N2CCCCC2C(=O)O)c(C)c1 (centres undefined)	> 46.7
COc1ccc(Cl)cc1NC(=O)NCc1cccnc1	> 43.8
c1cnc2ccc(-c3ccc4ncccc4c3)cc2c1	7.7 (≈ 30 µM)
C=CCNc1nc(Cl)nc(Nc2cc(Cl)ccc2OC)n1	< 0.1
CC1CC(O)C(C)CN1 (centres undefined)	> 19.4
COc1ccc(NC(=O)c2cc(C)nc3ccccc23)c(OC)c1	> 48.4
Nc1ccc2c(c1)COC2=O	22.2 (≈ 149 µM)
O=C1/C(=C/c2cccnc2)SC(=S)N1c1ccc(O)cc1	0.9 (≈ 2.86 µM)

Structure (SMILES)	solubility kinetic [µg/mL]
CC(=O)NCCc1cnc[nH]1	> 23
C=CCNc1nc(C)c(CNc2c(C)cc(C)cc2C)nc1C#N	0.9 (≈ 2.8 µM)
CCC1C(=O)Nc2ccccc2N1C(=O)COc1ccccc1 (centres undefined)	> 46.6
CC1CC(C)CN(c2cc(N(C)CCO)c([N+](=O)[O-])c3nonc23)C1 (centres undefined)	52.1 (≈ 149 µM)
CCOC(=O)N1CCN(c2cc(NCCO)c([N+](=O)[O-])c3nonc23)CC1	5.9 (≈ 15.5 µM)
CC(=O)Oc1ccc(NC(=O)Cc2ccccc2)c(C(=O)O)c1	> 47
Cn1ccnc1SC(C(=O)O)c1ccccc1 (centres undefined)	> 37.2
Cc1ccc(-c2csc3ncn(CC(N)=O)c(=O)c23)cc1C	> 47
N#Cc1cccc(NC(=O)CCNC(=O)c2ccccc2Cl)c1	> 49.2
CCOC(=O)c1cccc(N2C(=O)C3C4C=CC(CC4)C3C2=O)c1 (centres undefined)	3.7 (≈ 11.4 µM)
CCN(C(=O)COc1ncnc2sccc12)c1ccccc1	42.5 (≈ 136 µM)
CCCc1cc(C(=O)OC)c(NC(=O)CCCC(=O)O)s1	> 47
O=S(=O)(c1ccc(-c2ccon2)s1)N1CCN(c2ccccn2)CC1	1.1 (≈ 2.92 µM)
Cc1ccsc1C(=O)OCc1cc(=O)n2ccsc2n1	6.3 (≈ 20.6 µM)
CC(=O)c1cccc(Nc2cc(C)nc3ccccc23)c1.Cl	27.8
Cc1nc(Nc2cccc(O)c2)c2oc3ccccc3c2n1	2 (≈ 6.87 µM)
COc1ccc(C(=O)N=c2sc3ccccc3n2C)cc1	< 0.3
COc1ccc(Cl)cc1NC(=O)c1cc(C)no1	5.7 (≈ 21.4 µM)

Now from value to compound:

solubility kinetic [µg/mL]	Structure (SMILES)
51.3 (≈ 122 µM)	CC(C)[C@H](NC(=O)c1ccccc1F)C(=O)OCC(=O)NC(=O)NC1CCCCC1
> 46.2	Cc1cccc([N+](=O)[O-])c1NC(=O)COC(=O)C1CCCO1 (centres undefined)
39.1	Br.Fc1ccc(CNCC2CCCO2)cc1 (centres undefined)
1 (≈ 2.79 µM)	Cc1cccc2[nH]c3c(N4CC=C(c5ccc(F)cc5)CC4)ncnc3c12
> 55.2	Cc1ccc(-c2c[n+](CC(=O)Nc3ccccc3)c3n2CCC3)cc1.[Cl-]
1 (≈ 3.24 µM)	Fc1ccc(N2CCN(c3cnc4ccccc4n3)CC2)cc1
0.9 (≈ 2.83 µM)	ON(Cc1c(F)cccc1Cl)Cc1c(F)cccc1Cl
> 54.8	CSCCC1NC(=O)N(CC(=O)Nc2ccc3c(c2)OCCO3)C1=O (centres undefined)
0.9 (≈ 2.9 µM)	CC1CCCC(NC(=O)/C=C/c2c(F)cccc2Cl)C1C (centres undefined)
> 44.4	O=C(Nc1ccc2c(c1)OCO2)N1CCCc2ccccc21
47.3 (≈ 127 µM)	COc1cccc(NC(=S)N(CCN2CCCCC2)Cc2ccco2)c1
> 73.4	COc1ccc(CC(=O)Nc2cc(S(=O)(=O)N3CCOCC3)ccc2N2CCCC2)cc1OC
> 41.6	O=C(c1ccc2nc[nH]c2c1)N1CCc2ccccc2C1
15.4 (≈ 36 µM)	O=C(NCC(F)(F)F)c1ccc(S(=O)(=O)Nc2ccccc2N2CCCC2)cc1
> 39	O=C(CN1C(=O)COc2ccccc21)N1CCCC1
> 38.3	Cc1ccccc1NC(=O)CCOc1ccccc1

solubility kinetic [µg/mL]	Structure (SMILES)
43.1 (≈ 144 µM)	CC(CCc1ccccc1)NCC(O)COc1ccccc1 (centres undefined)
13.3 (≈ 37.3 µM)	O=C(COC(=O)COc1ccc(Br)cc1)NC1CCCC1
> 48.5	Cc1ccc(CNC(=O)CCc2c(C)[nH]c(=O)c(C#N)c2C)cc1
> 40	O=C(NC1=NCCCCC1)c1cccc2ccccc12
37.3 (≈ 144 µM)	CCCC1NC(C(=O)O)Cc2c1[nH]c1ccccc21 (centres undefined)
> 41.2	CC(=O)c1ccc(NC(=O)CN2CCCCCC2)cc1
> 56.8	Cl.O=C(COc1ccc(Br)cc1)OCCN1CCCCC1
> 40.3	O=C(COC(=O)C1CCC1)Nc1ccc(Cl)cn1
> 40.2	CC(C)[C@H](NC(=O)NCc1ccc(F)cc1)C(=O)O
10.8 (≈ 31.7 µM)	CCc1noc(C)c1C(=O)OCC(=O)Nc1ccc(F)cc1Cl
6.4 (≈ 28.3 µM)	O=C(Nc1ccc(-n2cccc2)cc1)C1CC1
33 (≈ 106 µM)	Cc1nc2ccccc2nc1OCC(=O)Nc1ccc(F)cc1
> 34.2	S=C(NCc1cccnc1)c1ccccc1
> 35.4	COc1ccc(CN2C(=O)CNC2=S)cc1
19.7 (≈ 87.4 µM)	O=C(c1ccc2ccccc2c1)N1CCCC1
